# What was measured:
# [1] = test system: SR; experiment: NCI human tumor cell panel: SR (Leukemia); type: cell-based; conditions: Leukemia; for GI50: read-out: Log10 GI50 (converted); for IC (TGI): read-out: Log10 TGI (converted)
# [2] = test system: EKVX; experiment: NCI human tumor cell panel: EKVX (Non-Small Cell Lung Cancer); type: cell-based; conditions: Non-Small Cell Lung Cancer; for GI50: read-out: Log10 GI50 (converted); for IC (TGI): read-out: Log10 TGI (converted)
# [3] = test system: HOP-62; experiment: NCI human tumor cell panel: HOP-62 (Non-Small Cell Lung Cancer); type: cell-based; conditions: HOP-62, Non-Small Cell Lung Cancer; for GI50: read-out: Log10 GI50 (converted); for IC (TGI): read-out: Log10 TGI (converted)
# [4] = test system: NCI-H23; experiment: NCI human tumor cell panel: NCI-H23 (Non-Small Cell Lung Cancer); type: cell-based; conditions: NCI-H23, Non-Small Cell Lung Cancer; for GI50: read-out: Log10 GI50 (converted); for IC (TGI): read-out: Log10 TGI (converted)
# [5] = test system: NCI-H322M; experiment: cells; type: cell-based; conditions: Homo sapiens, Non-Small Cell Lung Cancer; for GI50: read-out: Log10 GI50 (converted); for IC (TGI): read-out: Log10 TGI (converted)
# [6] = test system: NCI-H460; experiment: NCI human tumor cell panel: NCI-H460 (Non-Small Cell Lung Cancer); type: cell-based; conditions: NCI-H460, Non-Small Cell Lung Cancer; for GI50: read-out: Log10 GI50 (converted); for IC (TGI): read-out: Log10 TGI (converted)
# [7] = test system: HCC-2998; experiment: NCI human tumor cell panel: HCC-2998 (Colon Cancer); type: cell-based; conditions: HCC-2998, Colon Cancer; for GI50: read-out: Log10 GI50 (converted)
# [8] = test system: HCT-15; experiment: NCI human tumor cell panel: HCT-15 (Colon Cancer); type: cell-based; conditions: HCT-15, Colon Cancer; for GI50: read-out: Log10 GI50 (converted)
# [9] = test system: HT29; experiment: NCI human tumor cell panel: HT29 (Colon Cancer); type: cell-based; conditions: HT-29, HT29, Colon Cancer; for GI50: read-out: Log10 GI50 (converted); for IC (TGI): read-out: Log10 TGI (converted)
# [10] = test system: SF-295; experiment: NCI human tumor cell panel: SF-295 (CNS Cancer); type: cell-based; conditions: SF-295, CNS Cancer; for GI50: read-out: Log10 GI50 (converted); for IC (TGI): read-out: Log10 TGI (converted)
# [11] = test system: SF-539; experiment: NCI human tumor cell panel: SF-539 (CNS Cancer); type: cell-based; conditions: SF-539, CNS Cancer; for GI50: read-out: Log10 GI50 (converted); for IC (TGI): read-out: Log10 TGI (converted)
# [12] = test system: SNB-19; experiment: NCI human tumor cell panel: SNB-19 (CNS Cancer); type: cell-based; conditions: SNB-19, CNS Cancer; for GI50: read-out: Log10 GI50 (converted); for IC (TGI): read-out: Log10 TGI (converted)
# [13] = test system: SNB-75; experiment: NCI human tumor cell panel: SNB-75 (CNS Cancer); type: cell-based; conditions: SNB-75, CNS Cancer; for GI50: read-out: Log10 GI50 (converted)
# [14] = test system: U251; experiment: NCI human tumor cell panel: U251 (CNS Cancer); type: cell-based; conditions: U-251, U251, CNS Cancer; for GI50: read-out: Log10 GI50 (converted); for IC (TGI): read-out: Log10 TGI (converted)
# [15] = test system: LOX IMVI; experiment: NCI human tumor cell panel: LOX IMVI (Melanoma); type: cell-based; conditions: Melanoma; for GI50: read-out: Log10 GI50 (converted); for IC (TGI): read-out: Log10 TGI (converted)
# [16] = test system: M14; experiment: NCI human tumor cell panel: M14 (Melanoma); type: cell-based; conditions: M14, Melanoma; for GI50: read-out: Log10 GI50 (converted); for IC (TGI): read-out: Log10 TGI (converted)
# [17] = test system: SK-MEL-2; experiment: NCI human tumor cell panel: SK-MEL-2 (Melanoma); type: cell-based; conditions: SK-MEL-2, Melanoma; for GI50: read-out: Log10 GI50 (converted); for IC (TGI): read-out: Log10 TGI (converted)
# [18] = test system: SK-MEL-28; experiment: NCI human tumor cell panel: SK-MEL-28 (Melanoma); type: cell-based; conditions: SK-MEL-28, Melanoma; for GI50: read-out: Log10 GI50 (converted); for IC (TGI): read-out: Log10 TGI (converted)
# [19] = test system: IGROV1; experiment: NCI human tumor cell panel: IGROV1 (Ovarian Cancer); type: cell-based; conditions: IGROV-1, IGROV1, Ovarian Cancer; for GI50: read-out: Log10 GI50 (converted); for IC (TGI): read-out: Log10 TGI (converted)
# [20] = test system: OVCAR-4; experiment: NCI human tumor cell panel: OVCAR-4 (Ovarian Cancer); type: cell-based; conditions: OVCAR-4, Ovarian Cancer; for GI50: read-out: Log10 GI50 (converted); for IC (TGI): read-out: Log10 TGI (converted)
# [21] = test system: OVCAR-5; experiment: NCI human tumor cell panel: OVCAR-5 (Ovarian Cancer); type: cell-based; conditions: OVCAR-5, Ovarian Cancer; for GI50: read-out: Log10 GI50 (converted); for IC (TGI): read-out: Log10 TGI (converted)
# [22] = test system: 786-0; experiment: NCI human tumor cell panel: 786-0 (Renal Cancer); type: cell-based; conditions: 786-0, Renal Cancer; for GI50: read-out: Log10 GI50 (converted); for IC (TGI): read-out: Log10 TGI (converted)
# [23] = test system: TK-10; experiment: NCI human tumor cell panel: TK-10 (Renal Cancer); type: cell-based; conditions: TK-10, Renal Cancer; for GI50: read-out: Log10 GI50 (converted); for IC (TGI): read-out: Log10 TGI (converted)
# [24] = test system: UO-31; experiment: NCI human tumor cell panel: UO-31 (Renal Cancer); type: cell-based; conditions: UO-31, Renal Cancer; for GI50: read-out: Log10 GI50 (converted); for IC (TGI): read-out: Log10 TGI (converted)
# [25] = test system: PC-3; experiment: NCI human tumor cell panel: PC-3 (Prostate Cancer); type: cell-based; conditions: PC-3, Prostate Cancer; for GI50: read-out: Log10 GI50 (converted); for IC (TGI): read-out: Log10 TGI (converted)
# [26] = test system: MCF7/ADR-RES; experiment: NCI human tumor cell panel: MCF7/ADR-RES (Breast Cancer); type: cell-based; conditions: Breast Cancer; for GI50: read-out: Log10 GI50 (converted); for IC (TGI): read-out: Log10 TGI (converted)
# [27] = test system: HS 578T; experiment: NCI human tumor cell panel: HS 578T (Breast Cancer); type: cell-based; conditions: Breast Cancer; for GI50: read-out: Log10 GI50 (converted); for IC (TGI): read-out: Log10 TGI (converted)
# [28] = test system: MDA-MB-435; experiment: NCI human tumor cell panel: MDA-MB-435 (Breast Cancer); type: cell-based; conditions: MDA-MB-435, Breast Cancer; for GI50: read-out: Log10 GI50 (converted); for IC (TGI): read-out: Log10 TGI (converted)
# [29] = test system: MDA-N; experiment: NCI human tumor cell panel: MDA-N (Breast Cancer); type: cell-based; conditions: Breast Cancer; for GI50: read-out: Log10 GI50 (converted); for IC (TGI): read-out: Log10 TGI (converted)
# [30] = test system: BT-549; experiment: NCI human tumor cell panel: BT-549 (Breast Cancer); type: cell-based; conditions: BT-549, Breast Cancer; for GI50: read-out: Log10 GI50 (converted); for IC (TGI): read-out: Log10 TGI (converted)
# [31] = test system: HOP-92; experiment: NCI human tumor cell panel: HOP-92 (Non-Small Cell Lung Cancer); conditions: for GI50: HOP-92, read-out: Log10 GI50 (converted); for IC (TGI): HOP-92, read-out: Log10 TGI
# [32] = test system: NCI-H522; experiment: NCI human tumor cell panel: NCI-H522 (Non-Small Cell Lung Cancer); conditions: for GI50: NCI-H522, read-out: Log10 GI50 (converted); for IC (TGI): NCI-H522, read-out: Log10 TGI
# [33] = read-out: Log10 TGI (converted)
smiles,measurement,setting,value
OCc1ccc(-c2ccc(-c3cccs3)[se]2)s1 [NSC 675344],GI50,[1],> 100 µM
same,IC (TGI),[1],> 100 µM
same,GI50,[2],> 100 µM
same,IC (TGI),[2],> 100 µM
same,GI50,[3],34.7 µM
same,IC (TGI),[3],> 100 µM
same,GI50,[4],20.4 µM
same,IC (TGI),[4],> 100 µM
same,GI50,[5],20.9 µM
same,IC (TGI),[5],> 100 µM
same,GI50,[6],< 0.01 µM
same,IC (TGI),[6],> 100 µM
same,GI50,[7],0.257 µM
same,IC (TGI),[7]; [33],1.62 µM
same,GI50,[8],0.0257 µM
same,GI50,[9],> 100 µM
same,IC (TGI),[9],> 100 µM
same,GI50,[10],26.9 µM
same,IC (TGI),[10],> 100 µM
same,GI50,[11],> 100 µM
same,IC (TGI),[11],> 100 µM
same,GI50,[12],29.5 µM
same,IC (TGI),[12],> 100 µM
same,GI50,[13],16.6 µM
same,IC (TGI),[13]; [33],49 µM
same,GI50,[14],0.0251 µM
same,IC (TGI),[14],26.3 µM
same,GI50,[15],34.7 µM
same,IC (TGI),[15],> 100 µM
same,GI50,[16],> 100 µM
same,IC (TGI),[16],> 100 µM
same,GI50,[17],> 100 µM
same,IC (TGI),[17],> 100 µM
same,GI50,[18],> 100 µM
same,IC (TGI),[18],> 100 µM
same,GI50,[19],0.0123 µM
same,IC (TGI),[19],0.0427 µM
same,GI50,[20],0.0417 µM
same,IC (TGI),[20],> 100 µM
same,GI50,[21],< 0.01 µM
same,IC (TGI),[21],0.0871 µM
same,GI50,[22],12.3 µM
same,IC (TGI),[22],67.6 µM
same,GI50,[23],< 0.01 µM
same,IC (TGI),[23],0.0501 µM
same,GI50,[24],> 100 µM
same,IC (TGI),[24],> 100 µM
same,GI50,[25],> 100 µM
same,IC (TGI),[25],> 100 µM
same,GI50,[26],> 100 µM
same,IC (TGI),[26],> 100 µM
same,GI50,[27],53.7 µM
same,IC (TGI),[27],> 100 µM
same,GI50,[28],> 100 µM
same,IC (TGI),[28],> 100 µM
same,GI50,[29],> 100 µM
same,IC (TGI),[29],> 100 µM
same,GI50,[30],42.7 µM
same,IC (TGI),[30],> 100 µM
same,GI50,[31],27.5 µM
same,IC (TGI),[31],89.1 µM
same,GI50,[32],> 100 µM
same,IC (TGI),[32],> 100 µM
O=Cc1ccc(-c2ccc(-c3cccs3)[se]2)s1 [NSC 675346],GI50,[1],> 100 µM
same,IC (TGI),[1],> 100 µM
same,GI50,[2],77.6 µM
same,IC (TGI),[2],> 100 µM
same,GI50,[3],64.6 µM
same,IC (TGI),[3],> 100 µM
same,GI50,[4],14.5 µM
same,IC (TGI),[4],58.9 µM
same,GI50,[5],12.9 µM
same,IC (TGI),[5],> 100 µM
same,GI50,[6],0.251 µM
same,IC (TGI),[6],> 100 µM
same,GI50,[7],0.234 µM
same,GI50,[8],18.6 µM
same,IC (TGI),[8]; [33],> 100 µM
same,GI50,[9],> 100 µM
same,IC (TGI),[9],> 100 µM
same,GI50,[10],21.4 µM
same,IC (TGI),[10],69.2 µM
same,GI50,[11],51.3 µM
same,IC (TGI),[11],> 100 µM
same,GI50,[12],21.9 µM
same,IC (TGI),[12],95.5 µM
same,GI50,[13],13.8 µM
same,GI50,[14],0.0575 µM
same,IC (TGI),[14],25.7 µM
same,GI50,[15],19.5 µM
same,IC (TGI),[15],> 100 µM
same,GI50,[16],28.2 µM
same,IC (TGI),[16],> 100 µM
same,GI50,[17],24.5 µM
same,IC (TGI),[17],> 100 µM
same,GI50,[18],44.7 µM
same,IC (TGI),[18],> 100 µM
same,GI50,[19],0.162 µM
same,IC (TGI),[19],0.562 µM
same,GI50,[20],0.12 µM
same,IC (TGI),[20],26.9 µM
same,GI50,[21],0.0447 µM
same,IC (TGI),[21],0.575 µM
same,GI50,[22],13.5 µM
same,IC (TGI),[22],> 100 µM
same,GI50,[23],0.0631 µM
same,IC (TGI),[23],0.417 µM
same,GI50,[24],35.5 µM
same,IC (TGI),[24],> 100 µM
same,GI50,[25],61.7 µM
same,IC (TGI),[25],> 100 µM
same,GI50,[26],13.2 µM
same,IC (TGI),[26],60.3 µM
same,GI50,[27],23.4 µM
same,IC (TGI),[27],> 100 µM
same,GI50,[28],28.2 µM
same,IC (TGI),[28],87.1 µM
same,GI50,[29],> 100 µM
same,IC (TGI),[29],> 100 µM
same,GI50,[30],≥ 100 µM
same,IC (TGI),[30],> 100 µM
same,GI50,[31],18.6 µM
same,IC (TGI),[31],70.8 µM
same,GI50,[32],33.1 µM
same,IC (TGI),[32],> 100 µM

# Source: patent US20040063662A1, “Selenophene anti-tumor agents” (priority 1996, published 2004)
